Entries after “also recorded” stand apart in the source; their conditions may differ. Like-named read-outs stand apart in the source and are kept apart here.
Legend:
[1] = molecular target: T1, human α7 (Homo sapiens, UniProt P36544); assay: Receptor binding α7, recombinant human receptors in HEK cells; conditions: human α7 expressed in HEK cells
T1 construct: expressed in transfected cells; host or cells: HEK cells (per the earlier reading)

[2] = molecular target: a6/a3b2b3 (Homo sapiens, UniProt P17787+P32297+Q15825); assay: Receptor binding a6/a3b2b3
Chain of a6/a3b2b3 (Q15825+P32297 fused with the stated changes): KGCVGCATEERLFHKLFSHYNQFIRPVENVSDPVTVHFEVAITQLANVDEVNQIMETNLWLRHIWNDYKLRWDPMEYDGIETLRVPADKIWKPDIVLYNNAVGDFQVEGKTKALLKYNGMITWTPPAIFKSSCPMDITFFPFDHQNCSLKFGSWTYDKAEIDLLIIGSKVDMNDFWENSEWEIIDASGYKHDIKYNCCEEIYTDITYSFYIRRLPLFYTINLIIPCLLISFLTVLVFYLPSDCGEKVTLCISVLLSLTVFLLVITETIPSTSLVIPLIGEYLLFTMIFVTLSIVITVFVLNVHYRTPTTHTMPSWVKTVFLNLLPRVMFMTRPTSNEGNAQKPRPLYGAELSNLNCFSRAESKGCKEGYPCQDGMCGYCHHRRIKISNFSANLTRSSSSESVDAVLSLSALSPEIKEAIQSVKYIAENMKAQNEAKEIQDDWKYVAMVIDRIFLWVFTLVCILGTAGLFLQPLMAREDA
Chain of a6/a3b2b3 (P17787 26-502): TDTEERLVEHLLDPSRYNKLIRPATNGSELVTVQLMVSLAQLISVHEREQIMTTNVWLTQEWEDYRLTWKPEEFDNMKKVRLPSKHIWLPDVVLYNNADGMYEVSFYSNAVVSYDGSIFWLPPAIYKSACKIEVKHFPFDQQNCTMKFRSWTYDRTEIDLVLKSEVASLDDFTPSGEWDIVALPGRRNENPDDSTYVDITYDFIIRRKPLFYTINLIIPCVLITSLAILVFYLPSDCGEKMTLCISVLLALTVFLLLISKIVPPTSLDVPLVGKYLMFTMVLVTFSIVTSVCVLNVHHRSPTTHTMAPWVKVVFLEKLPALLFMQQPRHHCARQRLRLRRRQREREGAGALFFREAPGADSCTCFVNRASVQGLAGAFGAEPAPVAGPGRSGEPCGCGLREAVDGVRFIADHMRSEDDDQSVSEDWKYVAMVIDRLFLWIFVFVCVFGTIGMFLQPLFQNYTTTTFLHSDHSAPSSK
Chain of a6/a3b2b3 (Q05901 25-458 partner limits assumed): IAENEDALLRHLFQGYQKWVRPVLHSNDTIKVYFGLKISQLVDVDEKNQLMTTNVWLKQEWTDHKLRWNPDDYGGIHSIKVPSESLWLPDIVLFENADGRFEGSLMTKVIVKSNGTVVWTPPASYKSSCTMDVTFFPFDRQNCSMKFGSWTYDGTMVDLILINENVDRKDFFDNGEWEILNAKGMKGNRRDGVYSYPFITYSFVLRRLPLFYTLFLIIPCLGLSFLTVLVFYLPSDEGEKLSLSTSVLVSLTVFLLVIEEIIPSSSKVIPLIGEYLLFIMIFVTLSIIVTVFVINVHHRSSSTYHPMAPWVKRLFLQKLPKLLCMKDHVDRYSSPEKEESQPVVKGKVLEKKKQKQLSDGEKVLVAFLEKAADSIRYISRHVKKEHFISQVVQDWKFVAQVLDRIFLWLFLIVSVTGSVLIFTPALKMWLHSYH

[3] = molecular target: human α4β2 (Homo sapiens, UniProt P17787+P43681); assay: Receptor function α4β2, Ca++ flux; format: cell-based
Chain of human α4β2 (P43681 29-627 limits assumed): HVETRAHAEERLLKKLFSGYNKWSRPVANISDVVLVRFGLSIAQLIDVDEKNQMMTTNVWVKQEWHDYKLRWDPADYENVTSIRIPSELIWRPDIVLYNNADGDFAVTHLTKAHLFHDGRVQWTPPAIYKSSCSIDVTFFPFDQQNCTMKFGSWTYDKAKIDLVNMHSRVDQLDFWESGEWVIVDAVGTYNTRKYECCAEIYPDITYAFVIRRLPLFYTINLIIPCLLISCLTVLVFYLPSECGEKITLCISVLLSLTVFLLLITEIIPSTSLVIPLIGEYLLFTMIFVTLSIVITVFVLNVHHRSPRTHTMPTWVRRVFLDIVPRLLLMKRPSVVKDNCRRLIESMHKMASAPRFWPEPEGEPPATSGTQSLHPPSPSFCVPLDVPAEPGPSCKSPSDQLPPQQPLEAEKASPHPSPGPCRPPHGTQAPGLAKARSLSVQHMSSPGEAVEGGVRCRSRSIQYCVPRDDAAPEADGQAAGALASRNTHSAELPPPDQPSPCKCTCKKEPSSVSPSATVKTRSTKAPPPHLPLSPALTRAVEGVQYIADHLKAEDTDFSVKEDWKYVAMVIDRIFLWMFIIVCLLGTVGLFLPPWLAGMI
Chain of human α4β2 (P17787 26-502): as the sequence (P17787 26-502) above
Protocol: There are two types of α4β2-containing nAChR, depending on which subunit occupies the fifth subunit of the pentaineric complex. There is a high sensitivity subtype, (α4β2)2β2, and a low sensitivity subtype, (α4β2)2α4. Targacept used a rudimentary assay to encourage the expression of one subtype over the other based on incubation temperature.

[4] = molecular target: T2, ganglionic receptor (α3β4) (Homo sapiens, UniProt P30926+P32297); assay: Receptor function ganglionic receptors (human), SH-SY5Y and IMR-32 cells; format: cell-based
T2 construct: endogenous in cells
T2 sequence (P32297 32-505): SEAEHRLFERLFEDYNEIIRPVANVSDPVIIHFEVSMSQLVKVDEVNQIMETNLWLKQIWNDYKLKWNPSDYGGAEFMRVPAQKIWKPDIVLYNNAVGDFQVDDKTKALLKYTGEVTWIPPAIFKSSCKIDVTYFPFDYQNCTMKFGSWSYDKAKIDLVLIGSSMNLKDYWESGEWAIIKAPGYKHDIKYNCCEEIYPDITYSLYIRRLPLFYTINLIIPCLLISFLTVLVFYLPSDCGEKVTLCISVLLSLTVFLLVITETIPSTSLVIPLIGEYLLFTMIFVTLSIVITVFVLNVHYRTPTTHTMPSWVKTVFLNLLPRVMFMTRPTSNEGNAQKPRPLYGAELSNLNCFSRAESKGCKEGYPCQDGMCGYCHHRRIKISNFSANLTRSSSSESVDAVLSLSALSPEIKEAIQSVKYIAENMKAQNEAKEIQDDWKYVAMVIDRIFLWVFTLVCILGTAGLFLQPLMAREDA
T2 sequence (P30926 22-498): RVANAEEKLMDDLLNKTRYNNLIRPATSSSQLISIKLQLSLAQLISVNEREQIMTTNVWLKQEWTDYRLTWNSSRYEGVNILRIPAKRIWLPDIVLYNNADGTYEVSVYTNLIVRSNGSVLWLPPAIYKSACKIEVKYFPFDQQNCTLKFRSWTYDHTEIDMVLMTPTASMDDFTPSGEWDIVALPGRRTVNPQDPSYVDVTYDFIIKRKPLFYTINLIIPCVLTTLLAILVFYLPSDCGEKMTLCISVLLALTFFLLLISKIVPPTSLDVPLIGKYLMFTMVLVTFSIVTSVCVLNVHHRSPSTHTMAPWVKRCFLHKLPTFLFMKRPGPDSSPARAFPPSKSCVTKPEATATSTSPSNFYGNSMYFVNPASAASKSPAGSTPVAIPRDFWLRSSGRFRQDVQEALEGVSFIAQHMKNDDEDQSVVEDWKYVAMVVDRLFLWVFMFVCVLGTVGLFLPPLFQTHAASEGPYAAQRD

[5] = molecular target: a4b4 (Homo sapiens, UniProt P30926+P43681); assay: Receptor function a4b4, Ca++ flux; format: cell-based
Chain of a4b4 (P43681 29-627 limits assumed): as the sequence (P43681 29-627 limits assumed) above
Chain of a4b4 (P30926 22-498): as the sequence (P30926 22-498) above

[6] = system: paclitaxel-induced neuropathy, allodynia; assay: Reversing symptoms of paclitaxel-induced neuropathy; format: in vivo, Rat
[7] = system: behavioral sensitization; assay: CNS safety pharmacology, behavioral sensitization by motor activity; format: in vivo, Rat: Sprague-Dawley
[8] = Cardiovascular safety, telemetry in conscious dogs po; format: in vivo, Dog: Beagle; conditions: beagle, dog, in vivo; 5, 10, 20 mg/kg po; read-out: terminal half-life (TK)
[9] = system: blood pressure, heart rate, ECG; assay: as above; format: in vivo, Dog: Beagle
[10] = system: respiratory parameters; assay: Respiratory safety pharmacology; format: in vivo, Rat: Sprague-Dawley
[11] = Distribution coefficient; format: physicochemical; conditions: pH 7.4
[12] = Single dose pharmacokinetics, monkey; format: in vivo, Cyno monkey; conditions: plasma; for AUC(0-t): t = 168 h, read-out: AUC0-1; for AUC(0-inf): read-out: AUCinf, unchanged parent
Protocol: In a monkey study, [^14C]-Compound 1 was given at 10 mg/kg orally or 5 mg/kg by iv infusion. Oral bioavailability in this study was about 30%.

[13] = 13-week repeat-dose oral toxicity in Cynomolgus monkeys; format: in vivo, Cynomolgus monkey; conditions: for AUC / Cmax: plasma, po, at the NOAEL (30 mg/kg); for incidence of mild interstitial vacuolization in the heart: 60 mg/kg
Protocol: Compound 1 was given to Cynomolgus monkeys once daily for at least 13 weeks via oral gavage at doses of 10, 30, or 60 mg/kg/day. At the end of the dosing period, 2 monkeys per sex in the high-dose and control dose groups were selected for a recovery of 4 weeks. […] In the surviving monkeys at 60 mg/kg/day, clinical observations included emesis, decreased motor activity, body weight loss, slight increases in QT (up to +16%), QTcB (up to +9.2%), and QTcF (up to +11%) intervals that were associated with slight decreases in heart rate. These findings had resolved by the end of the 4-week recovery period. […] At 30 mg/kg, all animals had emesis, but they had fewer episodes of emesis than the animals dosed at 60 mg/kg. The dose of 30 mg/kg was well tolerated and was considered the NOAEL, Cmax and AUC increased less than proportionally at doses between 10 and 30 mg/kg.

[14] = system: mouse lymphoma cells; assay: micronucleus test in mouse lymphoma cells; format: cell-based; conditions: in vitro
Description: Compound 1 was negative for mutagenicity in both in vitro bioassays—including an Ames test, a micronucleus test in mouse lymphoma cells, and a chromosome aberration assay using cultured human peripheral blood lymphocytes—and an in vivo rat bone marrow micronucleus test.

[15] = system: subjects (intranasal administration); assay: Panel of compounds administered intranasally: effect on tearing and discomfort response; conditions: 50 microliters intranasally, three subjects, 0.01 mg/mL increased logarithmically up to 10 mg/mL
Protocol: A panel of twenty compounds with various receptor binding profiles, including other nicotinic acetylcholine receptor (nAchR) agonists were tested. At the onset of the experiment, 50 microliters of a 0.01 mg/mL compound formulation was administered intranasally to three subjects.

[16] = a4b2 HS (high sensitivity), 29° C., Ca++ Flux
[17] = Human ganglion-type (a3b4*), Ca++ Flux
[18] = 2.5, 5, 10 mg/kg po once daily for 5 days
[19] = cynomolgus monkey, Cyno monkey, 5 mg/kg [14C]-Compound 1, 20-minute intravenous
[20] = cynomolgus monkey, Cyno monkey, 10 mg/kg [14C]-Compound 1, oral
[21] = female, cynomolgus monkey, females
[22] = surviving monkeys, 60 mg/kg/day

T1 sequence (P36544 23-502): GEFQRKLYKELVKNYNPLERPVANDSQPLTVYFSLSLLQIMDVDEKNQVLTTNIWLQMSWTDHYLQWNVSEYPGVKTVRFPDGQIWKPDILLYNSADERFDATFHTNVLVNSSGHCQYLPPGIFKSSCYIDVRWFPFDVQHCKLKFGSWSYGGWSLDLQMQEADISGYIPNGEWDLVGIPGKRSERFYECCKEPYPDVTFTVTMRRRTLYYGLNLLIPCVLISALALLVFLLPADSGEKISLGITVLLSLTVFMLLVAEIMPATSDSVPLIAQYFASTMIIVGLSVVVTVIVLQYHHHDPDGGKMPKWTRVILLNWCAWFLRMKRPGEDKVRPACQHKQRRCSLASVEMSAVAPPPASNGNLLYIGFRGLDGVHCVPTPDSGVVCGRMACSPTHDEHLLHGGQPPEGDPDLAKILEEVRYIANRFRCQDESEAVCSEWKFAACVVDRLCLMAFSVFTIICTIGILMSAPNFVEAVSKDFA

## C(=C\[C@H]1CCNC1)/c1cncnc1 [Compound 1, (R)-5-((E)-2-pyrrolidin-3-ylvinyl)pyrimidine]
[1]
  Ki: 15 µM
[2]
  Ki: 0.24 µM
[3]; Ca++ flux, SH-EP1 cells expressing human α4β2
  EC50: 5.3 µM
[3]; Ca++ flux, SH-EP1 cells expressing human α4β2, read-out: Emax
  Emax: 120%
[3]; Human a4b2, Ca++ Flux
  EC50: 5.3 µM
[3]; a4b2 HS 29° C., Ca++ Flux
  (Imax): 98
[3]; [16]
  EC50: 3.3 µM
  IC50: 0.43 µM
[3]; a4b2 LS 37° C., Ca++ Flux
  DC50: 0.45 µM
  Dmax: 98%
[3]; a4b2 LS (low sensitivity), 37° C., Ca++ Flux
  EC50: 5.3 µM
[3]; high sensitivity subtype (α4β2)2β2, read-out: Emax
  Emax: 120%
[3]; human α4β2-containing nAChR
  EC50: 0.6 µM
[3]; low sensitivity subtype (LS)
  IC50: 0.45 µM
[3]; read-out: Emax compared to nicotine, human α4β2-containing nAChR
  Emax: 120%
[3]; α4β2 nicotine receptor subtype
  agonist type: full agonist
[4]; [17]
  EC50: 13 µM
  Emax: 150%
[4]; IMR-32 cells
  EC50: 22 µM
[4]; Rb+ Flux, IMR cells
  EC50: 22 µM
  Emax: 79%
[4]; Rb+ Flux, SHSY5Y cells
  EC50: 18 µM
[4]; SH-SY5Y cells
  EC50: 18 µM
  Emax vs. nicotine: 60%
[4]; SH-SY5Y, Rb+ Flux, SHSY5Y cells
  Emax: 60%
[4]; α3β4 nicotine receptor subtype
  agonist type: full agonist
[5]
  EC50: 4.3 µM
  Emax: 98%
[6]; 3 weeks post-dosing, only the 0.1 mg/kg dose
  allodynia vs vehicle-treated group: significantly different from vehicle.
[6]; once daily po 0.01, 0.1, 1.0 mg/kg, all doses, 4 weeks post-paclitaxel dosing
  allodynia vs vehicle-treated group: at all doses significantly reduced
[6]; paclitaxel-induced, 0.01-1 mg/kg p.o.
  reversing tactile allodynia: efficacious
[7]; 30 mg/kg, 15 days cross-challenge
  interaction between Compound 1 and nicotine in behavioral sensitization: daily for 15 days indicated no interaction
[7]; Compound 1 3, 10, 30 mg/kg po
  behavioral sensitization (motor activity): no noteworthy changes; also recorded: not associated with behavioral
[8]
  half-life: 1.3 to 4.2 h
[9]; 5 mg/kg po
  other findings: 5 mg/kg produced no other findings.
[9]; 10 mg/kg po
  ventricular extrasystole 10 to 25 minutes after dosing: 10 mg/kg was associated with 1
[9]; 20 mg/kg po
  emesis: emesis were noted at 20 mg/kg.
  lengthening of the QT interval: slight lengthening; also recorded: after dosing. In addition, slight
  ventricular extrasystole 10 to 25 minutes after dosing: 20 mg/kg was associated with 1
[9]; [18]
  PQ interval: tachycardia, and decreased PQ interval.
  QRS duration, QT interval, body temperature: There were no changes in the QRS
  accumulation after repeat dosing (TK): sexes. No accumulation was observed after
  tachycardia: pressure (mainly diastolic), marked
[9]; 2.5, 5, 10 mg/kg po, either sampling day
  dose proportionality of Cmax and AUC (TK): TK: There were no proportional increases
[9]; 5, 10, 20 mg/kg po, all dogs
  increase in blood pressure and bursts of sinus tachycardia: Compound 1 produced a transient and slight
[9]; all doses
  emesis shortly after dosing: exhibited emesis
[9]; oral doses up to 10 mg/kg
  systolic and diastolic blood pressure and heart rate: non-dose dependent increase
[10]; 100 mg/kg po
  respiratory rate, minute volume, peak inspiratory flow: Transient adverse effects; also recorded: shortlasting increase in respiratory rate,
[10]; 10 and 30 mg/kg po
  respiratory parameters: 10 and 30 mg/kg did not cause changes
[10]; 5 hour observation period
  tidal volume and index of airway resistance: There were no changes in tidal volume and
[10]; po
  NOEL, respiratory: The NOEL was 30 mg/kg.
[11]
  logD: < 1
[12]; [19]
  Tmax: 0.333 h
  AUC(0-t): 1530 ng·h/mL
[12]; cynomolgus monkey, Cyno monkey, 5 mg/kg [14C]-Compound 1, 20-minute intravenous, read-out: t1/2 (converted)
  half-life: 2.1 h
[12]; [20]
  Tmax: 2.25 h
  AUC(0-t): 942 ng·h/mL
[12]; cynomolgus monkey, Cyno monkey, 10 mg/kg [14C]-Compound 1, oral, read-out: F (oral bioavailability)
  bioavailability: 31.1%
[12]; cynomolgus monkey, Cyno monkey, 10 mg/kg [14C]-Compound 1, oral, read-out: t1/2 (converted)
  half-life: 1.9 h
[12]; cynomolgus, 5 mg/kg iv infusion
  AUC(0-inf): 1530 ng·h/mL
[12]; cynomolgus, Cyno monkey, 5 mg/kg [14C]-Compound 1, 20-minute intravenous
  Cmax: 2030 ng/mL
[12]; cynomolgus, Cyno monkey, 10 mg/kg [14C]-Compound 1, oral
  Cmax: 254 ng/mL
[12]; cynomolgus, oral, [14C]-Compound 1, 10 mg/kg orally vs 5 mg/kg iv infusion, read-out: Oral bioavailability
  bioavailability: ~30%
[12]; cynomolgus, po, 10 mg/kg orally
  AUC(0-inf): 969 ng·h/mL
[12]; cynomolgus, po, 10 mg/kg orally, read-out: half-life, unchanged parent (converted)
  half-life: 1.9 h
[13]; both sexes, cynomolgus monkey, in vivo, Cynomolgus monkeys, oral gavage once daily, 13 weeks
  NOAEL at 13 weeks: 30 mg/kg
[13]; [21]
  AUC: 2440 ng·h/mL
  Cmax: 696 ng/mL
[13]; females
  incidence of mild interstitial vacuolization in the heart: 2 of 3
[13]; male, cynomolgus monkey, males
  AUC: 1670 ng·h/mL
  Cmax: 382 ng/mL
[13]; males
  incidence of mild interstitial vacuolization in the heart: 1 of 2
[13]; one monkey at 60 mg/kg/day sacrificed during the fourth week
  body weight loss vs. Day 1 value: −22%
[13]; [22]
  increase in QT interval: up to +16%
  increase in QTcB interval: up to +9.2%
  increase in QTcF interval: up to +11%
[14]
  mutagenicity, micronucleus test: negative
[15]
  Causes Tearing: Yes
  Discomfort Response: No
